One compound from patent US11351192B2, “De-colonization drug, preparation method therefor, and application thereof” (BEIJING HYGIENE & HEALTHCARE INNOVATION TECHNOLOGY CO., LTD., priority 2017, dated 2022) can be followed below.

For this data set, the system named is multi-drug resistant bacteria. In kind it is in vivo, hospitalized patients. The text has this:
Using the case-control experiment, all newly-increased patients with multi-drug resistant bacteria in the cooperative hospital are selected for a period of time. The hospitalized patients are divided into the control group and the experimental group, and the control group is selected to be applied intranasally with mupirocin for 5 consecutive days and twice daily.
During the experiment, it can be found by electron microscopy at 200-fold whether mucosa has interstitial edema, inflammatory cell infiltration or surface epithelial cell shedding; it can show by electron microscopy at 6000-fold whether the mitochondria in the glandular epithelial cells are swollen or edema, it can show by electron microscopy at 10000-fold whether the morphology and structure of the ciliated epithelial cells is normal. FIGS. 1 and 2 are the electron microscopic images of the nasal mucosa by electron microscopy at 200-fold.

Where [1] appears, read: hospitalized patients, decolonization drug twice a day 3 days, mupirocin twice daily 5 days.

Regarding `C/C(=C\C(=O)OCCCCCCCCC(=O)O)C[C@@H]1OC[C@H](C[C@@H]2O[C@H]2[C@@H](C)[C@H](C)O)[C@@H](O)[C@H]1O` [mupirocin], under setting [1], the “cases of methicillin-resistant Staphylococcus aureus (MRSA)” value is 35 cases, the “cases of multi-drug resistant bacteria” value turned out to be 120 cases and the “ratio of MRSA cases among multi-drug resistant bacteria cases” value worked out at 29.16%. Besides, the “adverse reactions (edema and hyperemia symptoms of nasal mucosa)” value (human, in vivo, 5 days) is 2.
